Test results from ChEMBL document CHEMBL4680144, “N-thiadiazole-4-hydroxy-2-quinolone-3-carboxamides bearing heteroaromatic rings as novel antibacterial agents: Design, synthesis, biological evaluation and target identification” (Eur J Med Chem, 2020).
Converted amounts (≈) assume the structure as drawn.

How the values were obtained:
[1] = system: Staphylococcus aureus; assay: Potency index, ratio of vancomycin MIC to test compound MIC for antibacterial activity against methicillin resistant and vancomycin-intermediate sensitive Staphylococcus aureus ATCC 700699 assessed as inhibition of bacterial growth incubated for 18 to 24 hrs by broth microdilution method; type: functional; conditions: time 18-24 hrs
[2] = system: Staphylococcus aureus; assay: Inhibition of Staphylococcus aureus Gyrase B assessed as reduction in supercoiled pBR322 DNA production incubated for 30 mins by ethidium bromide staining based agarose gel electrophoresis method; conditions: dose 0.1-100 µM
[3] = system: Staphylococcus aureus; assay: Antibacterial activity against methicillin-resistant Staphylococcus aureus clinical isolate 15-1 assessed as inhibition of bacterial growth incubated for 18 to 24 hrs by broth microdilution method; type: functional; conditions: time 18-24 hrs
[4] = system: Enterococcus faecalis; assay: Antibacterial activity against vancomycin-resistant Enterococcus faecalis ATCC 700802 assessed as inhibition of bacterial growth incubated for 18 to 24 hrs by broth microdilution method; type: functional; conditions: time 18-24 hrs
[5] = system: Enterococcus faecalis; assay: Potency index, ratio of vancomycin MIC to test compound MIC for antibacterial activity against Enterococcus faecalis clinical isolate 15-1 assessed as inhibition of bacterial growth incubated for 18 to 24 hrs by broth microdilution method; type: functional; conditions: time 18-24 hrs
[6] = system: Staphylococcus aureus; assay: Antibacterial activity against wild type methicillin-sensitive Staphylococcus aureus ATCC 29213 assessed as inhibition of bacterial growth incubated for 18 to 24 hrs by broth microdilution method; type: functional; conditions: time 18-24 hrs
[7] = system: HUVEC; assay: Cytotoxicity against HUVEC assessed as reduction in cell viability after 72 hrs by sulforhodamine B assay; type: cell-based; conditions: Homo sapiens
[8] = Cmax in Kunming mouse at 10 mg/kg, po measured upto 72 hrs by HPLC analysis; type: ADME, organism-based; set-up: route oral, dose 10 mg/kg, time <=72; conditions: in vivo
[9] = system: Staphylococcus aureus; assay: Potency index, ratio of vancomycin MIC to test compound MIC for antibacterial activity against methicillin-resistant Staphylococcus aureus clinical isolate 15-1 assessed as inhibition of bacterial growth incubated for 18 to 24 hrs by broth microdilution method; type: functional; conditions: time 18-24 hrs
[10] = system: Staphylococcus aureus; assay: Potency index, ratio of vancomycin MIC to test compound MIC for antibacterial activity against methicillin-resistant Staphylococcus aureus clinical isolate 15-6 assessed as inhibition of bacterial growth incubated for 18 to 24 hrs by broth microdilution method; type: functional; conditions: time 18-24 hrs
[11] = system: HepG2; assay: Cytotoxicity against human HepG2 cells assessed as reduction in cell viability after 72 hrs by sulforhodamine B assay; type: cell-based; conditions: HepG2, 72 h
[12] = system: Staphylococcus epidermidis; assay: Antibacterial activity against methicillin-resistant Staphylococcus epidermidis clinical isolate 15-3 assessed as inhibition of bacterial growth incubated for 18 to 24 hrs by broth microdilution method; type: functional; conditions: time 18-24 hrs
[13] = MRTlast in Kunming mouse at 10 mg/kg, po measured upto 72 hrs by HPLC analysis; type: ADME, organism-based; conditions: in vivo
[14] = system: Staphylococcus epidermidis; assay: Antibacterial activity against methicillin-sensitive Staphylococcus epidermidis clinical isolate 15-3 assessed as inhibition of bacterial growth incubated for 18 to 24 hrs by broth microdilution method; type: functional; conditions: time 18-24 hrs
[15] = system: Staphylococcus aureus; assay: Potency index, ratio of vancomycin MIC to test compound MIC for antibacterial activity against methicillin resistant and vancomycin-intermediate sensitive Staphylococcus aureus ATCC 700788 assessed as inhibition of bacterial growth incubated for 18 to 24 hrs by broth microdilution method; type: functional; conditions: time 18-24 hrs
[16] = system: Staphylococcus epidermidis; assay: Potency index, ratio of vancomycin MIC to test compound MIC for antibacterial activity against methicillin-sensitive Staphylococcus epidermidis clinical isolate 15-3 assessed as inhibition of bacterial growth incubated for 18 to 24 hrs by broth microdilution method; type: functional; conditions: time 18-24 hrs
[17] = system: Enterococcus faecalis; assay: Antibacterial activity against vancomycin-resistant Enterococcus faecalis ATCC 51575 assessed as inhibition of bacterial growth incubated for 18 to 24 hrs by broth microdilution method; type: functional; conditions: time 18-24 hrs
[18] = system: Enterococcus faecalis; assay: Antibacterial activity against Enterococcus faecalis clinical isolate 15-2 assessed as inhibition of bacterial growth incubated for 18 to 24 hrs by broth microdilution method; type: functional; conditions: time 18-24 hrs
[19] = system: Staphylococcus aureus; assay: Antibacterial activity against methicillin resistant and vancomycin-intermediate sensitive Staphylococcus aureus ATCC 700699 assessed as inhibition of bacterial growth incubated for 18 to 24 hrs by broth microdilution method; type: functional; conditions: time 18-24 hrs
[20] = biological target: DNA topoisomerase 4 subunit B (Staphylococcus aureus, UniProt P0C1S7); assay: Inhibition of Staphylococcus aures ParE using pBR322 DNA as substrate in presence of ATP
Sequence of DNA topoisomerase 4 subunit B (P0C1S7 whole entry): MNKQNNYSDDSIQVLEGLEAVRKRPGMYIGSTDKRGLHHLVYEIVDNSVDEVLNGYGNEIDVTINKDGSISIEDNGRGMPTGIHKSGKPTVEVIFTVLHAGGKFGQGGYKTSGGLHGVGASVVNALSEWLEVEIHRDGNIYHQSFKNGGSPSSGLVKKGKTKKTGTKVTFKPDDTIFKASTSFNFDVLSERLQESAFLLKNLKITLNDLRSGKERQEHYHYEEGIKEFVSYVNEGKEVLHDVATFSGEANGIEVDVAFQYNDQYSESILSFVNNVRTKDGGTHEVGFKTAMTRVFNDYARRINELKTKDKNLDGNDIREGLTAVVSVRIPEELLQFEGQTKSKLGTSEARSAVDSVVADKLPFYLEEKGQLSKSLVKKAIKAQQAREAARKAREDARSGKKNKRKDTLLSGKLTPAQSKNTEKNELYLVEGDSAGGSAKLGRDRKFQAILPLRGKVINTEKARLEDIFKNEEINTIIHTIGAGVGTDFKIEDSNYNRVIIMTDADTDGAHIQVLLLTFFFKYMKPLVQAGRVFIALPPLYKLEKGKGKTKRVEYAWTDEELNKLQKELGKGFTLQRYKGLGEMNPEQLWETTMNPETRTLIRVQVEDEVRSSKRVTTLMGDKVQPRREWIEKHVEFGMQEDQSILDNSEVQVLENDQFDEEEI

[21] = system: Staphylococcus aureus; assay: Antibacterial activity against methicillin-resistant Staphylococcus aureus clinical isolate 15-6 assessed as inhibition of bacterial growth incubated for 18 to 24 hrs by broth microdilution method; type: functional; conditions: time 18-24 hrs
[22] = system: Staphylococcus aureus; assay: Potency index, ratio of vancomycin MIC to test compound MIC for antibacterial activity against methicillin-resistant Staphylococcus aureus clinical isolate 15-3 assessed as inhibition of bacterial growth incubated for 18 to 24 hrs by broth microdilution method; type: functional; conditions: time 18-24 hrs
[23] = Toxicity in Kunming mouse assessed as death at 30 mg/kg, po; type: organism-based; conditions: in vivo
[24] = system: Staphylococcus aureus; assay: Potency index, ratio of vancomycin MIC to test compound MIC for antibacterial activity against methicillin-resistant Staphylococcus aureus clinical isolate 15-9 assessed as inhibition of bacterial growth incubated for 18 to 24 hrs by broth microdilution method; type: functional; conditions: time 18-24 hrs
[25] = system: Enterococcus faecium; assay: Potency index, ratio of vancomycin MIC to test compound MIC for antibacterial activity against Enterococcus faecium clinical isolate 15-2 assessed as inhibition of bacterial growth incubated for 18 to 24 hrs by broth microdilution method; type: functional; conditions: time 18-24 hrs
[26] = system: Staphylococcus epidermidis; assay: Potency index, ratio of vancomycin MIC to test compound MIC for antibacterial activity against methicillin-sensitive Staphylococcus epidermidis clinical isolate 15-4 assessed as inhibition of bacterial growth incubated for 18 to 24 hrs by broth microdilution method; type: functional; conditions: time 18-24 hrs

Q: For CCn1c(=O)c(C(=O)Nc2nnc(-c3nccs3)s2)c(O)c2ccccc21, which Ratio [1] is on record?
A: 2

Q: What about the inhibition [2] of the same compound?
A: Dose-dependent effect

Q: And the MIC [3]?
A: 0.5 mg/L (≈ 1.25 µM)

Q: What about the MIC [4] of the same compound?
A: 0.5 mg/L (≈ 1.25 µM)

Q: And the Ratio [5]?
A: 2

Q: What about the MIC [6] of the same compound?
A: 0.1 mg/L (≈ 0.25 µM)

Q: And the IC50 [7]?
A: 38.8 µM

Q: What about the Cmax [8] of the same compound?
A: 0.827 µg/mL

Q: And the Ratio [9]?
A: 2

Q: And the Ratio [10]?
A: 2

Q: And the IC50 [11]?
A: 55.3 µM

Q: And the MIC [12]?
A: 0.5 mg/L (≈ 1.25 µM)

Q: And the MRT last at 72 h [13]?
A: 2.7 h

Q: What about the MIC [14] of the same compound?
A: 0.5 mg/L (≈ 1.25 µM)

Q: What about the Ratio [15] of the same compound?
A: 2

Q: What about the Ratio [16] of the same compound?
A: 2

Q: What about the MIC [17] of the same compound?
A: 0.5 mg/L (≈ 1.25 µM)

Q: And the MIC [18]?
A: 0.5 mg/L (≈ 1.25 µM)

Q: And the MIC [19]?
A: 0.5 mg/L (≈ 1.25 µM)

Q: And the IC50 [20]?
A: > 100 µM

Q: What about the MIC [21] of the same compound?
A: 0.5 mg/L (≈ 1.25 µM)

Q: And the Ratio [22]?
A: 2

Q: What about the Activity [23] of the same compound?
A: Non-Toxic

Q: And the Ratio [24]?
A: 2

Q: What about the Ratio [25] of the same compound?
A: 2

Q: What about the Ratio [26] of the same compound?
A: 2
